Data from US10975042B2, “Method for purifying an amino acid-n-carboxy anhydride” (SHIN-ETSU CHEMICAL CO., LTD., priority 2018, dated 2021).

Assay: Long-term storage stability of NCA, purity by DSC
Type: physicochemical
Conditions: for Purity after purification / Purity after 1 month from purification / Purity after 2 months from purification / Purity after a half year from purification / Purity after 1 year from purification / Purity after 2 years from purification: DSC
Procedure: In Examples and Comparative Examples, the purity of each NCA was measured using differential scanning calorimeter (DSC) in accordance with 2.52 thermal analysis method of The Japanese Pharmacopoeia, 17th ed. (2.4.4. measurement of purity). The measurement was performed using Thermo plus EVO DSC8230 (manufactured by Rigalu Corporation) as a measurement apparatus with the sample amount of 1 mg at a temperature increasing rate of 1° C./minute. Incidentally, it is conceived that precise measurement cannot be guaranteed unless the purity is 98 mol % or more according to 2.52 thermal analysis method of The Japanese Pharmacopoeia, 17th ed. (2.4.4. measurement of purity).
Each purified NCA was evaluated for long-term storage stability. […] Regarding the conditions of −20±5° C., the results of purity measured by DSC at after a half year, after 1 year, and after 2 years are shown. Regarding the conditions of 0 to 5° C., the results of purity measured by DSC at after 1 month, 2 months, and a half year are shown. As a comparison, commercially available NCA shown by the general formula (A) (manufactured by Isochem), the purity of which is more than 98 mol % based on the DSC measurement, was evaluated and shown as Comparison 1. This NCA has a residual chlorine concentration of 0.030 mass % and belongs to a lot with extremely low residual chlorine concentration in commercially available NCAs.

[1] = initial value of storage test at 0 to 5° C.
[2] = initial value of storage test at −20±5° C.

Compound | Purity after purification [1] | Purity after purification [2] | Purity after 1 month from purification (storage at 0 to 5° C.) | Purity after 2 months from purification (storage at 0 to 5° C.) | Purity after a half year from purification (storage at 0 to 5° C.) | Purity after 1 year from purification (storage at −20±5° C.) | Purity after 2 years from purification (storage at −20±5° C.) | Purity after a half year from purification (storage at −20±5° C.) | long term storage stability (lowering of purity) at 0 to 5° C. (0 to 5° C., up to a half year) | long term storage stability (lowering of purity) at −20° C. (−20° C., up to 2 years)
O=C(CC1NC(=O)OC1=O)OCc1ccccc1 (stereo not drawn) [(G)] | 99.25 mol % | 99.25 mol % | 99.24 mol % | 99.25 mol % | 99.26 mol % | 99.26 mol % | 99.25 mol % | 99.25 mol % |  | 
CC(C)(C)OCCCC1NC(=O)OC1=O (stereo not drawn) [(F)] | 99.10 mol % | 99.10 mol % | 99.12 mol % | 99.10 mol % | 99.10 mol % | 99.12 mol % | 99.12 mol % | 99.12 mol % |  | 
O=C1NC(CCCOCc2ccccc2)C(=O)O1 (stereo not drawn) [(E)] | 98.90 mol % | 98.90 mol % | 98.90 mol % | 98.88 mol % | 98.86 mol % | 98.88 mol % | 98.89 mol % | 98.89 mol % |  | 
O=C1CNC(=O)O1 [(J)] | 99.10 mol % | 99.10 mol % | 99.12 mol % | 99.10 mol % | 99.08 mol % | 99.12 mol % | 99.10 mol % | 99.15 mol % |  | 
CC(C)(C)OC(=O)N1CC(=O)OC1=O [(L)] | 99.05 mol % | 99.05 mol % | 99.07 mol % | 99.05 mol % | 99.07 mol % | 99.04 mol % | 99.05 mol % | 99.02 mol % |  | 
CC(C)(C)OC(=O)CC1NC(=O)OC1=O (stereo not drawn) [(H)] | 99.18 mol % | 99.18 mol % | 99.19 mol % | 99.19 mol % | 99.18 mol % | 99.16 mol % | 99.16 mol % | 99.17 mol % |  | 
CC(C)C1NC(=O)OC1=O (stereo not drawn) [(O)] | 98.80 mol % | 98.80 mol % | 98.77 mol % | 98.75 mol % | 98.73 mol % | 98.79 mol % | 98.79 mol % | 98.77 mol % |  | 
O=C1CCCNC(=O)O1 [(R)] | 99.03 mol % | 99.03 mol % | 99.05 mol % | 99.04 mol % | 99.03 mol % | 99.06 mol % | 99.05 mol % | 99.07 mol % |  | 
CN1CC(=O)OC1=O [(K)] | 98.94 mol % | 98.94 mol % | 98.93 mol % | 98.92 mol % | 98.90 mol % | 98.92 mol % | 98.93 mol % | 98.90 mol % |  | 
O=C1CCNC(=O)O1 [(Q)] | 99.32 mol % | 99.32 mol % | 99.31 mol % | 99.31 mol % | 99.32 mol % | 99.33 mol % | 99.33 mol % | 99.33 mol % |  | 
COCOCCCC1NC(=O)OC1=O (stereo not drawn) [(D)] | 99.00 mol % | 99.00 mol % | 98.98 mol % | 99.00 mol % | 98.95 mol % | 99.00 mol % | 99.05 mol % | 98.95 mol % |  | 
CC(C)(C)[Si](OCCC1NC(=O)OC1=O)(c1ccccc1)c1ccccc1 (stereo not drawn) [(I)] | 99.35 mol % | 99.35 mol % | 99.35 mol % | 99.36 mol % | 99.36 mol % | 99.36 mol % | 99.36 mol % | 99.35 mol % |  | 
CC(=O)N1CC(=O)OC1=O [(M)] | 99.22 mol % | 99.22 mol % | 99.23 mol % | 99.22 mol % | 99.24 mol % | 99.23 mol % | 99.23 mol % | 99.23 mol % |  | 
CC(C)CC1NC(=O)OC1=O (stereo not drawn) [(P)] | 98.91 mol % | 98.91 mol % | 98.93 mol % | 98.94 mol % | 98.94 mol % | 98.90 mol % | 98.91 mol % | 98.92 mol % |  | 
O=C(CCC1NC(=O)OC1=O)OCc1ccccc1 (stereo not drawn) [(B)] | 99.40 mol % | 99.40 mol % | 99.39 mol % | 99.41 mol % | 99.41 mol % | 99.41 mol % | 99.40 mol % | 99.40 mol % |  | 
CC(=O)OCCCC1NC(=O)OC1=O (stereo not drawn) [(C)] | 99.20 mol % | 99.20 mol % | 99.22 mol % | 99.21 mol % | 99.19 mol % | 99.22 mol % | 99.21 mol % | 99.22 mol % |  | 
CC(C)(C)OC(=O)CCC1CC(=O)OC1=O (stereo not drawn) [Comparison 1, reference compound] | 98.14 mol % | 98.14 mol % | <98 mol % | <98 mol % | <98 mol % | 98.02 mol % | <98 mol % | 98.06 mol % | lowered in 1 month | the purity was lowered in 2 years
